test system: not given; experiment: not given; conditions: not given

Q: For `NS(=O)(=O)c1nnc(NC(=O)c2cnn3c(C(F)F)cc(-c4ccc(C(F)(F)F)cc4)nc23)s1` [Example 3, 7-Difluoromethyl-5-(4-trifluoromethyl-phenyl)-pyrazolo[1,5-a]pyrimidine-3-carboxylic acid (5-sulfamoyl-[1,3,4]thiadiazol-2-yl)-amide], which melting point is on record?
A: The melting point was 284 °C.

Q: With `O=C(Nc1cc(S(=O)(=O)NCCO)sc1Cl)c1cnn2c(C(F)F)cc(-c3ccc(C(F)(F)F)cc3)nc12` [Example 44, 7-Difluoromethyl-5-(4-trifluoromethyl-phenyl)-pyrazolo[1,5-a]pyrimidine-3-carboxylic acid [2-chloro-5-(2-hydroxy-ethylsulfamoyl)-thiophen-3-yl]-amide] as the compound, how does the melting point read?
A: The melting point was 209 °C.

Q: For `Cc1cc(-c2cc(C(F)(F)F)n3ncc(C(=O)Nc4cc(S(N)(=O)=O)sc4Cl)c3n2)ccc1C(F)(F)F` [Example 11, 5-(3-Methyl-4-trifluoromethyl-phenyl)-7-trifluoromethyl-pyrazolo[1,5-a]pyrimidine-3-carboxylic acid (2-chloro-5-sulfamoyl-thiophen-3-yl)-amide], which melting point is on record?
A: Its melting point is 283 °C.

Q: With `CCOc1cc(-c2cc(C(F)(F)F)n3ncc(C(=O)Nc4nc(C)c(S(=O)(=O)NC(C)(CO)CO)s4)c3n2)ccc1C(F)(F)F` [Example 53, 5-(3-Ethoxy-4-trifluoromethyl-phenyl)-7-trifluoromethyl-pyrazolo[1,5-a]pyrimidine-3-carboxylic acid [5-(2-hydroxy-1-hydroxymethyl-1-methyl-ethylsulfamoyl)-4-methyl-thiazol-2-yl]-amide] as the compound, how does the melting point read?
A: The melting point was 220 °C.

Q: Which melting point does the source give for `Cc1nc(NC(=O)c2cnn3c(C(F)(F)F)cc(-c4ccc(C(F)(F)F)cc4)nc23)sc1S(=O)(=O)NCCO` [Example 46, 7-Trifluoromethyl-5-(4-trifluoromethyl-phenyl)-pyrazolo[1,5-a]pyrimidine-3-carboxylic acid [5-(2-hydroxy-ethylsulfamoyl)-4-methyl-thiazol-2-yl]-amide] here?
A: Its melting point is 166 °C.

Q: Which melting point does the source give for `O=C(Nc1cc(S(=O)(=O)N2CCC(O)C2)sc1Cl)c1cnn2c(C(F)(F)F)cc(-c3ccc(C(F)(F)F)cc3)nc12` (racemic) [Example 67, 7-Trifluoromethyl-5-(4-trifluoromethyl-phenyl)-pyrazolo[1,5-a]pyrimidine-3-carboxylic acid [(RS)-2-chloro-5-(3-hydroxy-pyrrolidine-1-sulfonyl)-thiophen-3-yl]-amide] here?
A: Its melting point is 270 °C.

Q: For `CN(C)CCNS(=O)(=O)c1cc(NC(=O)c2cnn3c(C(F)F)cc(-c4ccc(C(F)(F)F)cc4)nc23)c(Cl)s1` [Example 54, 7-Difluoromethyl-5-(4-trifluoromethyl-phenyl)-pyrazolo[1,5-a]pyrimidine-3-carboxylic acid [2-chloro-5-(2-dimethylamino-ethylsulfamoyl)-thiophen-3-yl]-amide], which melting point is on record?
A: Its melting point is 162 °C.

Q: For `Cc1nc(NC(=O)c2cnn3c(C(F)F)cc(-c4ccc(C(F)(F)F)cc4)nc23)sc1S(=O)(=O)NCCN(C)C` [Example 57, 7-Difluoromethyl-5-(4-trifluoromethyl-phenyl)-pyrazolo[1,5-a]pyrimidine-3-carboxylic acid [5-(2-dimethylamino-ethylsulfamoyl)-4-methyl-thiazol-2-yl]-amide], which melting point is on record?
A: Its melting point is 217 °C.

Q: Which melting point does the source give for `Cc1nc(NC(=O)c2cnn3c(C(F)(F)F)cc(-c4ccc(C(F)(F)F)c(Cl)c4)nc23)sc1S(=O)(=O)NC(C)(C)CO` [Example 30, 5-(3-Chloro-4-trifluoromethyl-phenyl)-7-trifluoromethyl-pyrazolo[1,5-a]pyrimidine-3-carboxylic acid [5-(2-hydroxy-1,1-dimethyl-ethylsulfamoyl)-4-methyl-thiazol-2-yl]-amide] here?
A: The melting point was 274 °C.

Q: With `CCOc1cc(-c2cc(C(F)(F)F)n3ncc(C(=O)Nc4nc(C)c(S(N)(=O)=O)s4)c3n2)ccc1C(F)(F)F` [Example 20, 5-(3-Ethoxy-4-trifluoromethyl-phenyl)-7-trifluoromethyl-pyrazolo[1,5-a]pyrimidine-3-carboxylic acid (4-methyl-5-sulfamoyl-thiazol-2-yl)-amide] as the compound, how does the melting point read?
A: Its melting point is 300 °C.

Q: Which melting point does the source give for `CCOc1cc(-c2cc(C(F)(F)F)n3ncc(C(=O)Nc4cc(S(=O)(=O)NCCO)sc4Cl)c3n2)ccc1C(F)(F)F` [Example 56, 5-(3-Ethoxy-4-trifluoromethyl-phenyl)-7-trifluoromethyl-pyrazolo[1,5-a]pyrimidine-3-carboxylic acid [2-chloro-5-(2-hydroxy-ethylsulfamoyl)-thiophen-3-yl]-amide] here?
A: The melting point was 250 °C.

Q: With `Cc1nc(NC(=O)c2cnn3c(C(F)F)cc(-c4ccc(C(F)(F)F)cc4)nc23)sc1S(=O)(=O)NCCO` [Example 45, 7-Difluoromethyl-5-(4-trifluoromethyl-phenyl)-pyrazolo[1,5-a]pyrimidine-3-carboxylic acid [5-(2-hydroxy-ethylsulfamoyl)-4-methyl-thiazol-2-yl]-amide] as the compound, how does the melting point read?
A: The melting point was 134 °C.

Q: With `Cc1nc(NC(=O)c2cnn3c(C(F)F)cc(-c4ccc(C(F)(F)F)cc4)nc23)sc1S(=O)(=O)N(CCO)CCO` [Example 40, 7-Difluoromethyl-5-(4-trifluoromethyl-phenyl)-pyrazolo[1,5-a]pyrimidine-3-carboxylic acid {5-[bis-(2-hydroxy-ethyl)-sulfamoyl]-4-methyl-thiazol-2-yl}-amide] as the compound, how does the melting point read?
A: Its melting point is 191 °C.

Q: For `CC(C)(CO)NS(=O)(=O)c1cc(NC(=O)c2cnn3c(C4CC4)cc(-c4ccc(Cl)cc4)nc23)c(Cl)s1` [Example 61, 5-(4-Chloro-phenyl)-7-cyclopropyl-pyrazolo[1,5-a]pyrimidine-3-carboxylic acid [2-chloro-5-(2-hydroxy-1,1-dimethyl-ethylsulfamoyl)-thiophen-3-yl]-amide], which melting point is on record?
A: Its melting point is 238 to 241 °C.

Q: For `CC(CO)(CO)NS(=O)(=O)c1cc(NC(=O)c2cnn3c(C(F)(F)F)cc(-c4ccc(C(F)(F)F)cc4)nc23)c(Cl)s1` [Example 38, 7-Trifluoromethyl-5-(4-trifluoromethyl-phenyl)-pyrazolo[1,5-a]pyrimidine-3-carboxylic acid [2-chloro-5-(2-hydroxy-1-hydroxymethyl-1-methyl-ethylsulfamoyl)-thiophen-3-yl]-amide], which melting point is on record?
A: Its melting point is 201 °C.

Q: Which melting point does the source give for `NS(=O)(=O)c1cnc(NC(=O)c2cnn3c(C(F)F)cc(-c4ccc(C(F)(F)F)cc4)nc23)s1` [Example 52, 7-Difluoromethyl-5-(4-trifluoromethyl-phenyl)-pyrazolo[1,5-a]pyrimidine-3-carboxylic acid (5-sulfamoyl-thiazol-2-yl)-amide] here?
A: The melting point was 311 °C.

Q: With `O=C(Nc1cc(S(=O)(=O)NCCO)sc1Cl)c1cnn2c(C(F)(F)F)cc(-c3ccc(C(F)(F)F)cc3)nc12` [Example 36, 7-Trifluoromethyl-5-(4-trifluoromethyl-phenyl)-pyrazolo[1,5-a]pyrimidine-3-carboxylic acid [2-chloro-5-(2-hydroxy-ethylsulfamoyl)-thiophen-3-yl]-amide] as the compound, how does the melting point read?
A: Its melting point is 191 °C.

Q: For `O=C(Nc1cc(S(=O)(=O)N2CCC(O)C2)sc1Cl)c1cnn2c(C(F)F)cc(-c3ccc(C(F)(F)F)cc3)nc12` (racemic) [Example 66, 7-Difluoromethyl-5-(4-trifluoromethyl-phenyl)-pyrazolo[1,5-a]pyrimidine-3-carboxylic acid [(RS)-2-chloro-5-(3-hydroxy-pyrrolidine-1-sulfonyl)-thiophen-3-yl]-amide], which melting point is on record?
A: Its melting point is 274 °C.

Q: For `CC(CO)(CO)NS(=O)(=O)c1cc(NC(=O)c2cnn3c(C(F)F)cc(-c4ccc(C(F)(F)F)cc4)nc23)c(Cl)s1` [Example 37, 7-Difluoromethyl-5-(4-trifluoromethyl-phenyl)-pyrazolo[1,5-a]pyrimidine-3-carboxylic acid [2-chloro-5-(2-hydroxy-1-hydroxymethyl-1-methyl-ethylsulfamoyl)-thiophen-3-yl]-amide], which melting point is on record?
A: The melting point was 237 °C.

Q: With `CCOc1cc(-c2cc(C(F)(F)F)n3ncc(C(=O)Nc4cc(S(N)(=O)=O)sc4Cl)c3n2)ccc1C(F)(F)F` [Example 10, 5-(3-Ethoxy-4-trifluoromethyl-phenyl)-7-trifluoromethyl-pyrazolo[1,5-a]pyrimidine-3-carboxylic acid (2-chloro-5-sulfamoyl-thiophen-3-yl)-amide] as the compound, how does the melting point read?
A: The melting point was 281 °C.

target: T1, rat mGlu2 receptor (Rattus norvegicus, UniProt P31421); experiment: [3H]-LY354740 binding on mGlu2 transfected CHO cell membranes; conditions: 10 nM [3H]-LY354740, membranes of CHO cells transfected with rat mGlu2, room temperature, 1 hour
T1 construct: expressed in transfected cells; membranes prepared
T1 sequence (P31421 19-872): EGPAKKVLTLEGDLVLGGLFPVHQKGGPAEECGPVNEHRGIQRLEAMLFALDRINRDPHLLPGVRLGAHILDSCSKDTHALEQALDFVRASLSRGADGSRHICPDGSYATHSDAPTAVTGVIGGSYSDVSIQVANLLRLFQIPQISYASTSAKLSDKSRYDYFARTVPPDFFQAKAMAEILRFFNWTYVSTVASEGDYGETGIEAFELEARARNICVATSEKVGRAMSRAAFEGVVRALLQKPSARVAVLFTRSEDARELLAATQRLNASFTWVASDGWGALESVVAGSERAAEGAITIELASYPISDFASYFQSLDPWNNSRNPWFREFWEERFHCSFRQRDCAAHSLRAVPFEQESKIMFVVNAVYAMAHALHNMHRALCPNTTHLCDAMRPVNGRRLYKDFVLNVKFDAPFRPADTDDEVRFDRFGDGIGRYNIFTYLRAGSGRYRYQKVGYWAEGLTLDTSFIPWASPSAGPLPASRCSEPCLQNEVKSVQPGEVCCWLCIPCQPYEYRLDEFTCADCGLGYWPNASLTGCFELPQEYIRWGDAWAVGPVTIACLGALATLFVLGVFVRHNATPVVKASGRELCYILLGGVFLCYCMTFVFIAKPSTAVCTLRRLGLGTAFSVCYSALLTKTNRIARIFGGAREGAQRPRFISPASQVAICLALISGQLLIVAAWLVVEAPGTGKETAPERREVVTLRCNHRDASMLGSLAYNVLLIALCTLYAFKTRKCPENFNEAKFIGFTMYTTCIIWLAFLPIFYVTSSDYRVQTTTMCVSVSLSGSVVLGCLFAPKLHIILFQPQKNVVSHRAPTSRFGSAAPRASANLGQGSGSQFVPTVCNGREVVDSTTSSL
Excerpt: [^3H]-LY354740 Binding on mGlu2 Transfected CHO Cell Membranes. Transfection and Cell Culture
cDNA encoding the rat mGlu2 receptor protein in pBluescript II was subcloned into the eukaryotic expression vector pcDNA I-amp from Invitrogen Ltd (Paisley, UK). This vector construct (pcD1mGR2) was co-transfected with a psvNeo plasmid encoding the gene for neomycin resistance, into CHO cells by a modified calcium phosphate method described by Chen & Okayama (1988). The cells were maintained in Dulbecco's Modified Eagle medium with reduced L-glutamine (2 mM final concentration) and 10% dialysed foetal calf serum from Gibco-Invitrogen (Carlsbad, Calif., USA). Selection was made in the presence of G-418 (1000 ug/ml final) and […]. Clones were identified by reverse transcription of 5 μg total RNA, followed by PCR mGlu2 receptor specific primers 5′-[…]-3′ and 5′-[…]-3′in 60 mM Tris HCl (pH 10), 15 mM (NH4)2SO4, 2 mM MgCl2, 25 units/ml Taq Polymerase with 30 cycles annealing at 60° C. for 1 min., extention at 72° C. for 30 s, and 1 min. 95° C. denaturation.
Cells, cultured as above, were harvested and washed three times with cold PBS and frozen at −80° C. The pellet was resuspended in cold 20 mM HEPES-NaOH buffer containing 10 mM EDTA (pH 7.4), and homogenised with a polytron (Kinematica, AG, Littau, Switzerland) for 10 s at 10 000 rpm. After centrifugation for 30 min. at 4° C., the pellet was washed once with the same buffer, and once with cold 20 mM HEPES-NaOH buffer containing 0.1 mM EDTA, (pH 7.4). Protein content was measured using the micro BCA method from Pierce-Perbio (Rockford, Ill., USA) using bovine serum albumin as standard.
After thawing, the membranes were resuspended in cold 50 mM Tris-HCl buffer containing 2 mM MgCl2 (pH 7) (binding buffer). The final concentration of the membranes in the assays was 25 μg protein/ml. Inhibition experiments were performed with membranes incubated with 10 nM [^3H]-LY354740 at room temperature, for 1 hour, in presence of various concentrations of the compound to be tested. Following the incubations, membranes were filtered onto Whatmann GF/B glass fiber filters and washed 5 times with cold binding buffer. Non specific binding was measured in the presence of 10 μM DCG IV. After transfer of the filters into plastic vials containing 10 ml of Ultima-gold scintillation fluid from Perkin-Elmer(Boston, Mass., USA), the radioactivity was measured by liquid scintillation in a Tri-Carb 2500 TR counter (Packard, Zürich, Switzerland).
The inhibition curves were fitted with a four parameter logistic equation giving IC50 values, and Hill coefficients.

Q: With `NS(=O)(=O)c1nnc(NC(=O)c2cnn3c(C(F)F)cc(-c4ccc(C(F)(F)F)cc4)nc23)s1` [Example 3, 7-Difluoromethyl-5-(4-trifluoromethyl-phenyl)-pyrazolo[1,5-a]pyrimidine-3-carboxylic acid (5-sulfamoyl-[1,3,4]thiadiazol-2-yl)-amide] as the compound, how does the Ki read?
A: The Ki was 142 nM.
